One assay has as its target T1, Dihydrofolate reductase (Gallus gallus, UniProt P00378).
T1 sequence (P00378 whole entry): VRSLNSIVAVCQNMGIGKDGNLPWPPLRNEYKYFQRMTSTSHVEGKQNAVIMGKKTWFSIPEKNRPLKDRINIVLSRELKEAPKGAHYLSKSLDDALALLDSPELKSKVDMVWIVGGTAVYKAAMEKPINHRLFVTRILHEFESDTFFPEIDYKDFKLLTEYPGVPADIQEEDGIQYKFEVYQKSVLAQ
As to the kind of experiment: Compound was evaluated for inhibitory activity against chicken dihydrofolate reductase. The conditions noted are these: read-out: Log 1/Ki (converted).

Assay [1] can be described thus: (§1) Selectivity index against Escherichia coli DHFR. In kind it is functional.
A short description of assay [2]: (§2) Selectivity index against Lactobacillus casei DHFR. In kind it is functional.
Assay [3] concerns the target T2, Dihydrofolate reductase (Homo sapiens) (UniProt P00374).
T2 sequence (whole entry): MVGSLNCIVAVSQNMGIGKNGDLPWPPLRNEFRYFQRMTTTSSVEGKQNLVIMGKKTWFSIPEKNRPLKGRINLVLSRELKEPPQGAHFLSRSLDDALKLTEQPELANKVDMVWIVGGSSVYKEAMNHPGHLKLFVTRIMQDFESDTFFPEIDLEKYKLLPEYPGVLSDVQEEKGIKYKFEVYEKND
Described as §1. In kind it is functional.

Assay [4] concerns the target T2, Dihydrofolate reductase (Homo sapiens). Described as §2. In kind it is functional.

As to `CCc1cc(Cc2cnc(N)nc2N)cc(NC(C)=O)c1CO`, the Ki at Dihydrofolate reductase is 708 µM. Also, the values for the SI in assay [1] and in assay [2] were 4.87 and 3.36, respectively.
Turning to `CCc1cc(Cc2cnc(N)nc2N)cc(CO)c1CO`, the SI in assay [3] worked out at 4.28; in assay [4], 3.13.

The values are drawn from ChEMBL document CHEMBL1125751, “On the optimization of hydrophobic and hydrophilic substituent interactions of 2,4-diamino-5-(substituted-benzyl)pyrimidines with dihydrofolate reductase” (J Med Chem, 1991).
